Experimental data published in patent US20040242694A1, “Remedial agent for cardiac failure” (priority 2001, published 2004).

Assays:
[1] = tested on: animal test mode of ventricular failure; details: J Pharmacol Exp Ther 291(2) 799-811 (1999); Circ Res 85(4) 364-376 (1999); cited from earlier work
[2] = tested on: Dahl's salt-sensitive rat; experiment: P-V curve of removed hearts under perfuse by Langendorff's method; assay type: ex vivo; details: compared with the control group; Langendorff perfusion
Procedure: In the above model of cardiac failure using Dahl's salt-sensitive rat, internal pressure and volume of left ventricle of hearts removed from 11, 15, and 17 weeks rats were measured under perfuse by Langendorff's method.

[3] = tested on: mice; experiment: Toxicity, oral administration to mice; assay type: in vivo
Procedure: It was considered that the toxicities of the compounds in the present invention could be very low and safe to use as a medicine. For example, the lowest lethal dose in oral administration of compound (II) to mice was 2000 mg/kg.

Compound | effect on animal test model of ventricular failure [1] | P-V curve (internal pressure and volume of left ventricle) [2] | lowest lethal dose [3] [mg/kg]
CC(C)[C@H](NS(=O)(=O)c1ccc(-c2ccc(Br)cc2)cc1)C(=O)O [PD166793] | effective | – | –
CCOCOC[C@H](C[C@H](C)C(=O)NO)NC(=O)c1ccc(Oc2ccccc2)cc1 [compound (II), N-hydroxy-5-ethoxymethyloxy-2(S)-methyl-4(S)-(4-phenoxybenzoyl)aminopentanamide] | – | shifts to the left side | 2000
